The values below come from patent US20240335431A1, “1-H-PYRROLO[2,3-c]PYRIDINE COMPOUNDS” (Acerta Pharma B.V., priority 2023, published 2024).

SMILES strings stand for the structures. A value given as a limit tells only on which side of the number the result lay.

As usually defined, the Papp A→B is how fast a substance crosses the layer from the apical side.

The nature of one series: Human hepatocyte intrinsic clearance assay. In kind it is in vitro ADME. The settings on record: human hepatocytes. Here is the method:
Human hepatocytes (LiverPool™ 10-Donor Human hepatocytes (Mixed Gender, PEG-free, Product No. S01205, 5 million cells per vial) were obtained from BioreclamationIVT. DMSO was sourced from Solarbio S&T Co Ltd. Leibovitz's L-15 Medium, Williams' Medium E, GlutaMAX™-1 (100×), HEPES, DPBS (10×) and Human Recombinant Insulin Solution were purchased from Gibco. Isotonic Percoll Solution was purchased from GE Healthcare. Fetal Bovine Serum (FBS) was purchased from Corning.
10 mM dexamethasone stock solution was prepared by dissolving 3.9 mg dexamethasone in 1 mL of DMSO. An Isotonic Percoll Solution was prepared by dilution of Percoll with DPBS (10×). 15 mL of Isotonic Percoll Solution (90% Percoll/10% DPBS) was added to 31.25 mL William's E medium containing 500 mL of GlutaMAX™-1 (100×), 750 mL of 1M HEPES, 2.5 mL of 5% FBS, 50 mL of 4 mg/mL Human Recombinant Insulin Solution and 5 mL of the 10 mM dexamethasone stock.
2 mL of 10 mM DMSO stock solutions of test compound were added to 198 mL acetonitrile to produce 100 mmol/L concentration.
The human hepatocyte vial was thawed at 37° C. in a waterbath. Once thawed, contents were poured into a 50 mL conical tube and centrifuged at 100 g for 10 minutes. The thawing medium was poured out and 4 mL L-15 medium was added. The tube was gently shaken to resuspend the hepatocytes and cells were counted with an appropriate cell counter. 247.5 mL of the hepatocyte suspension was transferred into each well of the plate and pre-warmed at 600 rpm and 50° C. to enable the temperature to rise to 37° C.
2.5 mL of the […] test compound solution was added to initiate the reaction (final concentration […]) and incubated at 37° C. with shaking at 900 rpm. At 0.5, 5, 15, 30, 45, 60, 80, 100 and 120 minutes, 20 mL was taken into a quenching solution of acetonitrile containing internal standards. The mix was vortexed at 800 rpm for 2 minutes followed by centrifugation for 20 minutes at 4000 rpm at 4° C. 40 mL of supernatant was transferred into a 96 well analysis plate containing 160 mL of water in each well. The analysis plate was shaken at 100 rpm for 2 minutes prior to analysis by LC-MS/MS.
Peak areas were determined from extracted ion chromatograms. Percent parent remaining was calculated from peak area of test compound. The slope value, k, was determined by linear regression of the natural logarithm of percent parent remaining versus incubation time.
The in vitro intrinsic clearance (in vitro CLint in mL/min/10^6 cells) was determined from the slope value using the following equation: […]
where V is the incubation volume (0.25 mL) and N is the number of hepatocytes per well (0.25×10^6 cells).
`Cc1c(C(=O)C2CCN(C(=O)[C@@H]3CCC(C)(C)N3)CC2)c2ccncc2n1-c1ccc(F)cc1C(=O)N(C(C)C)C(C)C` (single isomer, unassigned) [Compound 56-2]: the “HH CLint” value is given as 3.4 μl/min/1E6. On the same count and under the same terms, then `CCN(C(=O)c1cc(F)ccc1-n1c(C)c(C(=O)C2CCN(C(=O)[C@H]3NC[C@@H]4C[C@@H]43)CC2)c2ccncc21)C(C)C` (single isomer, unassigned) [Example 48-1], with <1.0 μl/min/1E6; and `CCN(C(=O)c1cc(F)ccc1-n1c(C)c(C(=O)C2CCN(C(=O)[C@H]3NC[C@@H]4C[C@@H]43)CC2)c2ccncc21)C(C)C` (single isomer, unassigned) [Example 48-2], with <1.0 μl/min/1E6.

A further series can be described thus: Caco-2 cell monolayers intrinsic permeation assay in the presence of efflux inhibitors. The format is in vitro ADME. The settings on record: Caco-2, with efflux inhibitors. An excerpt: Caco-2 cells were obtained from American Type Culture Collection (ATCC). HEPES, penicillin, streptomycin, bovine serum albumin (BSA) were obtained from Beijing Xinjingke Biotechnology Co, Ltd. Fetal bovine serum, Hank's balanced salt solution (HBSS) and non-essential amino acids (NEAA) were purchased from Gibco. Dulbecco's Modified Eagle's Medium (DMEM) was purchased from Corning and MES from Sigma. HTS Transwell-24 permeable supports were purchased from Corning. Zosuquidar and Ko-143 were obtained from MedChemExpress and Benzbromarone from Sigma.
The Caco-2 cell culture medium consisted of DMEM with high glucose and L-glutamine supplemented with 10% FBS, 0.1 mg/mL streptomycin, 100 units of penicillin, 0.6 mg/mL kanamycin sulfate and 1×NEAA. […] culture medium was added to each Transwell insert with 800 mL added to each well of the reservoir. After incubation at 37° C. in 5% CO2 for 1 hour, the plates were ready for seeding.
The cells were cultivated in T-75 flasks at 37° C., 5% CO2, 95% relative humidity. At 80 to 90% confluence, cells were treated with trypsin/EDTA treatment until they became detached. The trypsin/EDTA was inactivated by adding excess serum containing medium. The cell suspension was centrifuged at 120 g for 10 minutes followed by resuspension of the cell pellet in seeding medium at a cell density of 7.92×10^5 cells/mL.
[…] of the resulting cell suspension was added to each well of the Transwell plate and incubated for 14 to 18 days, with medium replaced every other day. After incubation for 14 to 18 days, the cells should have reached confluence and should be tested for electrical resistance using a Millicel Epithelial Volt-Ohm measuring system (Millipore).
The cell monolayers were washed twice with pre-warmed HBSS and incubated at 37° C. for 30 minutes under gentle shaking (480 rpm).
The compound under test was presented as a 10 mM DMSO stock solution. 2 mL of the 10 mM stock was added to 8 mL DMSO to produce a 2 mM stock. 2 mL was added to 398 mL of HBSS containing 10 mM Zosuquidar, 30 mM Benzbromarone and 2 mM KO-143 to make a […] solution.
210 mL of the test compound solution was added to the apical compartment of the Transwell plate, with a 10 mL sample taken to act as the time 0 sample. The wells of the receiver (basolateral) compartment were filled with 800 mL HBSS (containing the efflux inhibitors). The plates were incubated at 37° C. with shaking at 480 rpm for 120 minutes with sampling at 45 and 120 minutes.
At each sampling time (0, 45 and 120 minutes) 10 mL was removed from the apical compartment and add to 90 mL (HBSS containing the efflux inhibitors). 100 mL was removed from each basolateral compartment. 3 volumes of cold acetonitrile containing internal standard was added to each sample and vortex mixed for 10 minutes at 100 rpm. Samples were then centrifuged at 400 rpm for 20 minutes. 50 mL of the supernatant was taken for LC/MS/MS analysis to determine compound concentration.
The apparent permeability (Papp), in units of centimetre per second, were calculated for Caco-2 drug transport using the following equation: […]
Where CR is the concentration of compound in the receiver side at the respective time point, CD is the concentration of compound in the donor side at the respective timepoint. Area is the surface area of the membrane and time is 4500 seconds (75×60 seconds).
Background: Passage across Caco-2 layers is used to estimate intestinal permeability.
Turning to `Cc1c(C(=O)C2CCN(C(=O)[C@H]3NC[C@@H]4C[C@@H]43)CC2)c2ccncc2n1-c1ccc(F)cc1C(=O)N(CC(F)(F)F)C(C)C` (single isomer, unassigned) [Example 51-1], the Papp A→B amounted to 1.7 ×10⁻⁶ cm/s. Regarding `Cc1c(C(=O)[C@@H]2CCN(C(=O)[C@@H]3CC[C@H](C)N3)[C@@H](C)C2)c2ccncc2n1-c1ccc(F)cc1C(=O)N(C(C)C)C(C)C` (stereo in doubt) [Example 62, 5-Fluoro-N,N-diisopropyl-2-(2-methyl-3-((2S,4RS)-2-methyl-1-((2S,5S)-5-methylpyrrolidine-2-carbonyl)piperidine-4-carbonyl)-1H-pyrrolo[2,3-c]pyridin-1-yl)benzamide], the apical-to-basolateral permeability (Papp A→B) was found to be 4.9 ×10⁻⁶ cm/s. Same read-out and setting: then `CCN(C(=O)c1cc(F)ccc1-n1c(C)c(C(=O)[C@@H]2CCN(C(=O)[C@@H]3CC[C@H](C)N3)[C@@H](C)C2)c2ccncc21)C(C)C` (stereo in doubt) [Example 63, N-Ethyl-5-fluoro-N-isopropyl-2-(2-methyl-3-((2S,4RS)-2-methyl-1-((2S,5S)-5-methylpyrrolidine-2-carbonyl)piperidine-4-carbonyl)-1H-pyrrolo[2,3-c]pyridine-1-yl)benzamide], with 1.5 ×10⁻⁶ cm/s; and `Cc1c(C(=O)[C@@H]2CCN(C(=O)[C@@H]3CC[C@@H](C)N3)[C@@H](C)C2)c2ccncc2n1-c1ccc(F)cc1C(=O)N(C(C)C)C(C)C` (stereo in doubt) [Example 64, 5-Fluoro-N,N-diisopropyl-2-(2-methyl-3-((2S,4RS)-2-methyl-1-((2S,5R)-5-methylpyrrolidine-2-carbonyl)piperidine-4-carbonyl)-1H-pyrrolo[2,3-c]pyridin-1-yl)benzamide], with 4.3 ×10⁻⁶ cm/s; and `CCN(C(=O)c1cc(F)ccc1-n1c(C)c(C(=O)[C@@H]2CCN(C(=O)[C@@H]3CC[C@@H](C)N3)[C@@H](C)C2)c2ccncc21)C(C)C` (stereo in doubt) [Example 65, N-Ethyl-5-fluoro-N-isopropyl-2-(2-methyl-3-((2S,4RS)-2-methyl-1-((2S,5R)-5-methylpyrrolidine-2-carbonyl)piperidine-4-carbonyl)-1H-pyrrolo[2,3-c]pyridin-1-yl)benzamide], with 1.7 ×10⁻⁶ cm/s.

On to `CC(C)N(C(=O)c1cc(F)ccc1-n1cc(C(=O)C2CN(C(=O)[C@H]3NC4CCC3CC4)C2)c2ccncc21)C(C)C` [Example 6, (S)-2-(3-(1-(2-Azabicyclo[2.2.2]octane-3-carbonyl)azetidine-3-carbonyl)-1H-pyrrolo[2,3-c]pyridin-1-yl)-5-fluoro-N,N-diisopropylbenzamide], for which the Papp A→B was < 0.5 ×10⁻⁶ cm/s. Take `CCN(C(=O)c1cc(F)ccc1-n1cc(C(=O)C2CN(C(=O)[C@H]3N[C@@H]4CC[C@H]3C4)C2)c2ccncc21)C(C)C` [Example 8, 2-(3-(1-((1R,3S,4S)-2-Azabicyclo[2.2.1]heptane-3-carbonyl)azetidine-3-carbonyl)-1H-pyrrolo[2,3-c]pyridin-1-yl)-N-ethyl-5-fluoro-N-isopropylbenzamide]: the Papp A→B was found to be 0.2 ×10⁻⁶ cm/s. Turning to `CC(C)(F)c1ncccc1-c1cc(F)ccc1-n1cc(C(=O)C2CN(C(=O)[C@H]3N[C@@H]4CC[C@H]3C4)C2)c2ccncc21` [Example 13, (1-((1R,3S,4S)-2-Azabicyclo[2.2.1]heptane-3-carbonyl)azetidin-3-yl)(1-(4-fluoro-2-(2-(2-fluoropropan-2-yl)pyridin-3-yl)phenyl)-1H-pyrrolo[2,3-c]pyridin-3-yl)methanone], the Papp A→B stood at 1.7 ×10⁻⁶ cm/s.

`CCN(C(=O)c1cc(F)ccc1-n1cc(C(=O)C2CCN(C(=O)[C@H]3N[C@H]4C[C@@H]3[C@@H](F)C4)CC2)c2ccncc21)C(C)C` [Example 30, N-Ethyl-5-fluoro-2-(3-(1-((1S,3S,4S,5S)-5-fluoro-2-azabicyclo[2.2.1]heptane-3-carbonyl)piperidine-4-carbonyl)-1H-pyrrolo[2,3-c]pyridin-1-yl)-N-isopropylbenzamide]: the Papp A→B is 0.8 ×10⁻⁶ cm/s.

Consider `C[C@@H]1CCC[C@H](C)N1C(=O)c1cc(F)ccc1-n1cc(C(=O)C2CCN(C(=O)[C@H]3N[C@@H]4CC[C@H]3C4)CC2)c2ccncc21` [Example 33, (1-((1R,3S,4S)-2-Azabicyclo[2.2.1]heptane-3-carbonyl)piperidin-4-yl)(1-(2-((2R,6S)-2,6-dimethylpiperidine-1-carbonyl)-4-fluorophenyl)-1H-pyrrolo[2,3-c]pyridin-3-yl)methanone], for which the Papp A→B worked out at 0.5 ×10⁻⁶ cm/s.

For `C[C@@H]1COC[C@@H](C)N1C(=O)c1cc(F)ccc1-n1cc(C(=O)C2CCN(C(=O)[C@H]3N[C@@H]4CC[C@H]3C4)CC2)c2ccncc21` [Example 34, (1-((1R,3S,4S)-2-Azabicyclo[2.2.1]heptane-3-carbonyl)piperidin-4-yl)(1-(2-((3R,5R)-3,5-dimethylmorpholine-4-carbonyl)-4-fluorophenyl)-1H-pyrrolo[2,3-c]pyridin-3-yl)methanone], the Papp A→B is 0.2 ×10⁻⁶ cm/s. Turning to `CC(C)N(C(=O)c1cc(F)ccc1-n1cc(C(=O)C2CCN(C(=O)[C@H]3N[C@@H]4CC[C@H]3C4)CC2)c2c(F)cncc21)C(C)C.O=CO` [Example 44, 2-(3-(1-((1R,3S,4S)-2-Azabicyclo[2.2.1]heptane-3-carbonyl)piperidine-4-carbonyl)-4-fluoro-1H-pyrrolo[2,3-c]pyridin-1-yl)-5-fluoro-N,N-diisopropylbenzamide 1·formic acid], the Papp A→B is 1 ×10⁻⁶ cm/s.
